Data as given in ChEMBL document CHEMBL2074163, “Identification of monocarboxylate transporter 8 as a specific thyroid hormone transporter” (J Biol Chem, 2003).

Tests used:
Format in all cases: functional, cell-based
Conditions in all cases: Oocyte
[1] = molecular target: Monocarboxylate transporter 8 (Rattus norvegicus) (UniProt Q8K1P8); assay: TP_TRANSPORTER: inhibition of thyroxine uptake (thyroxine:10nM, Tryptophan: 100 uM) in Xenopus laevis oocytes; set-up: scale not given: the % may be the effect or the level left
[2] = molecular target: Monocarboxylate transporter 8 (Rattus norvegicus) (UniProt Q8K1P8); assay: TP_TRANSPORTER: inhibition of 3,3',5-triiodothyronine uptake (3,3',5-triiodothyronine:10nM, Tryptophan: 100 uM) in Xenopus laevis oocytes; set-up: scale not given: the % may be the effect or the level left
[3] = molecular target: Monocarboxylate transporter 8 (Rattus norvegicus) (UniProt Q8K1P8); assay: TP_TRANSPORTER: uptake in Xenopus laevis oocytes
[4] = molecular target: Monocarboxylate transporter 8 (Rattus norvegicus) (UniProt Q8K1P8); assay: TP_TRANSPORTER: inhibition of 3,3',5-triiodothyronine uptake (3,3',5-triiodothyronine:10nM, Tyrosine: 100 uM) in Xenopus laevis oocytes; set-up: scale not given: the % may be the effect or the level left
[5] = molecular target: Monocarboxylate transporter 8 (Rattus norvegicus) (UniProt Q8K1P8); assay: TP_TRANSPORTER: inhibition of thyroxine uptake (thyroxine:10nM, Tyrosine: 100 uM) in Xenopus laevis oocytes; set-up: scale not given: the % may be the effect or the level left
[6] = molecular target: Monocarboxylate transporter 8 (Rattus norvegicus) (UniProt Q8K1P8); assay: TP_TRANSPORTER: inhibition of thyroxine uptake (thyroxine:10nM, L-thyroxine: 10 uM) in Xenopus laevis oocytes; set-up: scale not given: the % may be the effect or the level left
[7] = molecular target: Monocarboxylate transporter 8 (Rattus norvegicus) (UniProt Q8K1P8); assay: TP_TRANSPORTER: inhibition of 3,3',5-triiodothyronine uptake (3,3',5-triiodothyronine:10nM, L-thyroxine: 10 uM) in Xenopus laevis oocytes; set-up: scale not given: the % may be the effect or the level left
[8] = molecular target: Monocarboxylate transporter 8 (Rattus norvegicus) (UniProt Q8K1P8); assay: TP_TRANSPORTER: inhibition of thyroxine uptake (thyroxine:10nM, bromosul-fophthalein: 100 uM) in Xenopus laevis oocytes; set-up: scale not given: the % may be the effect or the level left
[9] = molecular target: Monocarboxylate transporter 8 (Rattus norvegicus) (UniProt Q8K1P8); assay: TP_TRANSPORTER: inhibition of 3,3',5-triiodothyronine uptake (3,3',5-triiodothyronine:10nM, bromosul-fophthalein: 100 uM) in Xenopus laevis oocytes; set-up: scale not given: the % may be the effect or the level left
[10] = molecular target: Monocarboxylate transporter 8 (Rattus norvegicus) (UniProt Q8K1P8); assay: TP_TRANSPORTER: inhibition of 3,3',5-triiodothyronine uptake (3,3',5-triiodothyronine:10nM, N-bromoacetyl-3,3',5-triiodothyronine: 10 uM) in Xenopus laevis oocytes; set-up: scale not given: the % may be the effect or the level left
[11] = molecular target: Monocarboxylate transporter 8 (Rattus norvegicus) (UniProt Q8K1P8); assay: TP_TRANSPORTER: inhibition of thyroxine uptake (thyroxine:10nM, N-bromoacetyl-3,3',5-triiodothyronine: 10 uM) in Xenopus laevis oocytes; set-up: scale not given: the % may be the effect or the level left
[12] = molecular target: Monocarboxylate transporter 8 (Rattus norvegicus) (UniProt Q8K1P8); assay: TP_TRANSPORTER: inhibition of thyroxine uptake (thyroxine:10nM, D-3,3',5-triiodothyronine: 10 uM) in Xenopus laevis oocytes; set-up: scale not given: the % may be the effect or the level left
[13] = molecular target: Monocarboxylate transporter 8 (Rattus norvegicus) (UniProt Q8K1P8); assay: TP_TRANSPORTER: inhibition of 3,3',5-triiodothyronine uptake (3,3',5-triiodothyronine:10nM, D-3,3',5-triiodothyronine: 10 uM) in Xenopus laevis oocytes; set-up: scale not given: the % may be the effect or the level left
[14] = molecular target: Monocarboxylate transporter 8 (Rattus norvegicus) (UniProt Q8K1P8); assay: TP_TRANSPORTER: inhibition of 3,3',5-triiodothyronine uptake (3,3',5-triiodothyronine:10nM, D-thyroxine: 10 uM) in Xenopus laevis oocytes; set-up: scale not given: the % may be the effect or the level left
[15] = molecular target: Monocarboxylate transporter 8 (Rattus norvegicus) (UniProt Q8K1P8); assay: TP_TRANSPORTER: inhibition of thyroxine uptake (thyroxine:10nM, D-thyroxine: 10 uM) in Xenopus laevis oocytes; set-up: scale not given: the % may be the effect or the level left

Monocarboxylate transporter 8 (Rattus norvegicus), sequence (Q8K1P8 whole entry): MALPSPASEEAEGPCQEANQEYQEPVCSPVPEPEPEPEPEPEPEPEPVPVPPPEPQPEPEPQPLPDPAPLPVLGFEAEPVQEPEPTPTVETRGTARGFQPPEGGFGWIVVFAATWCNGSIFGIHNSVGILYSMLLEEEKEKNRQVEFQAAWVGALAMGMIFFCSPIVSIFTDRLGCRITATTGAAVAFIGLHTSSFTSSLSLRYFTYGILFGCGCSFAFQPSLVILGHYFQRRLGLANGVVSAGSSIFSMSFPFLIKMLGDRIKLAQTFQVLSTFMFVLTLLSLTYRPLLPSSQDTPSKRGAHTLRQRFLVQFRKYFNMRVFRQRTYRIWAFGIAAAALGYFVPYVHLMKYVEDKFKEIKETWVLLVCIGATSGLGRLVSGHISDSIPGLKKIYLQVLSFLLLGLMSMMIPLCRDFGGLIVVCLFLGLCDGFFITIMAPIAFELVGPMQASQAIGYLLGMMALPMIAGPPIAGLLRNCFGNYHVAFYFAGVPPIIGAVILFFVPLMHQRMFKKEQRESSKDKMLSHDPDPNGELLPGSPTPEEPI

## N[C@@H](Cc1c[nH]c2ccccc12)C(=O)O
[1]
  Activity: 22%
[2]
  Activity: 0%
[3]
  Activity: is not a substrate [-]

## N[C@@H](Cc1ccc(O)cc1)C(=O)O
[4]
  Activity: 0%
[5]
  Activity: 37%
[3]
  Activity: is not a substrate [-]

## N[C@@H](Cc1cc(I)c(Oc2cc(I)c(O)c(I)c2)c(I)c1)C(=O)O
[6]
  Activity: 69%
[7]
  Activity: 26%

## NC(Cc1ccc(Oc2ccc(O)c(I)c2)c(I)c1)C(=O)O (stereo unspecified)
[3]
  Activity: substrate [+]

## O=C(O)[C@@H](Cc1cc(I)c(Oc2cc(I)c(O)c(I)c2)c(I)c1)NS(=O)(=O)O
[3]
  Activity: is not a substrate [-]

## O=C1OC(c2ccc(O)c(S(=O)(=O)O)c2)(c2ccc(O)c(S(=O)(=O)O)c2)c2c(Br)c(Br)c(Br)c(Br)c21
[8]
  Activity: 94%
[9]
  Activity: 81%

## N[C@@H](Cc1ccccc1)C(=O)O
[3]
  Activity: is not a substrate [-]

## N[C@@H](Cc1cc(I)c(Oc2cc(I)c(OS(=O)(=O)O)c(I)c2)c(I)c1)C(=O)O
[3]
  Activity: is not a substrate [-]

## O=C(CBr)N[C@@H](Cc1cc(I)c(Oc2ccc(O)c(I)c2)c(I)c1)C(=O)O
[10]
  Activity: 67%
[11]
  Activity: 90%

## N[C@@H](Cc1ccc(Oc2cc(I)c(O)c(I)c2)c(I)c1)C(=O)O
[12]
  Activity: 72%
[13]
  Activity: 24%

## CC(C)C[C@H](N)C(=O)O
[3]
  Activity: is not a substrate [-]

## N[C@H](Cc1cc(I)c(Oc2cc(I)c(O)c(I)c2)c(I)c1)C(=O)O
[14]
  Activity: 21%
[15]
  Activity: 76%
